The test system of assay [1] is SK-BR-3 breast cancer cell line. The assay is described as follows: In vitro antiproliferation assay, General Procedure 1 (WST-8). Type of assay: cell-based. The following applies: SK-BR-3 cells; neoDegrader conjugates (DAR 8) versus comparators; FIGS. 7 and 8. The method, then:
(§1) The ability of neoDegrader conjugates to inhibit cell growth was measured using in vitro anti-proliferation assay. […] Conjugates were diluted in complete cell growth medium using 4-fold serial dilutions and 100 µL was added per well. […] Viability of remaining cells was determined by colorimetric WST-8 assay (Dojindo Molecular Technologies, Inc., Rockville, MD, US). WST-8 was added to 10% of the final volume and plates were incubated at 37° C. in a humidified 5% CO2 incubator for 2-4 hours. Plates were analyzed by measuring the absorbance at 450 nm (A450) in a multi-well plate reader. Background A450 absorbance of wells with media and WST-8 only was subtracted from all values. The percent viability was calculated by dividing each treated sample value by the average value of wells with untreated cells. The percent viability value was plotted against the test sample concentration in a semi-log plot for each treatment. IC50 values were calculated automatically.

In assay [2] the test system is NCI-N87 gastric cancer cell line. The assay is described as above. Type of assay: cell-based. The following applies: NCI-N87 cells; neoDegrader conjugates (DAR 8) versus comparators; FIGS. 16 and 17. Here is the method:
as §1

Assay [3] deals with THP-1 cell line. The assay can be described thus: In vitro antiproliferation assay, General Procedure 2 (CCK-8). Format: cell-based. The following applies: Homo sapiens, AML. The text has this:
(§2) Cell Culture: Cell lines were obtained from the American Type Culture Collection (ATCC, Manassas, VA, USA) or Deutsche Sammlung von Mikroorganismen und Zellkulturen (DSMZ, Braunschweig, Germany) and maintained according to the culturing conditions specified by ATCC or DSMZ. Cells were thawed out and maintained in culture for at least two passages before proceeding with experimental conditions.
(§3) Cytotoxicity assays: For adherent cell lines, the cells were dissociated with enzyme-free PBS-based cell dissociation buffer (Gibco, USA) and plated on tissue culture treated 96-well flat bottom polystyrene plates (Costar, Corning, USA) at appropriate cell densities depending on doubling time of the cells. 18 hours after plating, cells were treated with test articles at appropriate concentrations starting at 100 nM and diluted in 4-fold serial dilutions. For suspension cell lines, the cells were seeded on the same day of treatment and cells were treated as described above. Adherent cells were treated for 5 days and suspension cells were treated for 3 days. Cell proliferation was assessed using the Cell Counting Kit-8 (CCK-8, Dojindo Laboratories, Japan) and measurements were obtained using the Promega GloMax Discover plate reader (Promega, USA). Data were analyzed using GraphPad Prism software (GraphPad Software, San Diego, CA). All data points were obtained from technical triplicates and the experiments were validated using three biological replicates.

Assay [4] relates to HL-60 cell line. The assay is described as above. Format: cell-based. Particulars: Homo sapiens, HL-60; AML; read-out: IC50, HL-60.
Text: as §2, §3

In assay [5] the test system is LOVO cell line. The assay is described as above. Type of assay: cell-based. The following applies: Homo sapiens, Colon.
Text: as §2, §3

In assay [6] the test system is THLE2 cell line. The description is as above. Type of assay: cell-based. The following applies: THLE-2; Human liver normal.
Text: as §2, §3

In assay [7] the test system is U251MG cell line. The description is as above. The following applies: Homo sapiens, U-251; Brain. Format: cell-based.
Text: as §2, §3

Assay [8] concerns PL-21 cell line. The description is as above. Format: cell-based. The following applies: Acute myeloid leukemia.
Text: as §2, §3

For assay [9], the system named is KE39 cell line. The assay is described as above. Particulars: Gastric. Type of assay: cell-based.
Text: as §2, §3

The subject of assay [10] is SNU182 cell line. The description is as above. Format: cell-based. Particulars: Homo sapiens, SNU-182; Liver.
Text: as §2, §3

The test system of assay [11] is JHUEM3 cell line. The assay is described as above. Type of assay: cell-based. The following applies: Endometrial.
Text: as §2, §3

Assay [12] relates to ML-2 cell line. Described as above. Format: cell-based. The following applies: Homo sapiens, ML-2; Acute myelomonocytic leukemia; read-out: IC50, ML-2.
Text: as §2, §3

The test system of assay [13] is CMK cell line. The assay is described as above. Format: cell-based. Particulars: Homo sapiens, Acute megakaryocytic leukemia.
Text: as §2, §3

The subject of assay [14] is OCI-AML2 cell line. Described as above. Type of assay: cell-based. The following applies: Homo sapiens, OCI-AML2; Acute myeloid leukemia; read-out: IC50, OCI-AML2.
Text: as §2, §3

The test system of assay [15] is Daudi cell line. The description is as above. Format: cell-based. The following applies: Homo sapiens, NHL.
Text: as §2, §3

Assay [16] relates to MOLM13 cell line. Described as above. Type of assay: cell-based. The following applies: Homo sapiens, MOLM-13; AML; read-out: IC50, MOLM13.
Text: as §2, §3

The test system of assay [17] is RPMI7951 cell line. Described as above. Type of assay: cell-based. The following applies: Homo sapiens, RPMI-7951; Skin.
Text: as §2, §3

Assay [18] relates to AGS cell line. Described as above. Type of assay: cell-based. The following applies: Homo sapiens, Gastric.
Text: as §2, §3

Assay [19] deals with SU-DHL-8 cell line. Described as above. Format: cell-based. The following applies: Homo sapiens, NHL.
Text: as §2, §3

Assay [20] has as its system SKOV3 cell line. Described as above. Particulars: Homo sapiens, SK-OV-3; Ovarian. Type of assay: cell-based.
Text: as §2, §3

Assay [21] relates to MV4-11 cell line. Described as above. Particulars: Homo sapiens, MV4-11; Biphenotypic B myelomonocytic leukemia; read-out: IC50, MV4-11. Format: cell-based.
Text: as §2, §3

Assay [22] concerns OCI-M1 cell line. Described as above. Particulars: Acute myeloid leukemia. Type of assay: cell-based.
Text: as §2, §3

Assay [23] deals with OCI-M2 cell line. The description is as above. Format: cell-based. The following applies: Acute myelocytic leukemia.
Text: as §2, §3

Assay [24] has as its system OCI-AML4 cell line. The description is as above. Type of assay: cell-based. The following applies: Acute myeloid leukemia; read-out: IC50, OCI-AML4.
Text: as §2, §3

The subject of assay [25] is SKM-1 cell line. Described as above. Format: cell-based. The following applies: Homo sapiens, SKM-1; Acute myeloid leukemia; read-out: IC50, SKM-1.
Text: as §2, §3

Assay [26] has as its system Molp8 cell line. The assay is described as above. Type of assay: cell-based. The following applies: Homo sapiens, MOLP-8; MM.
Text: as §2, §3

For assay [27], the system named is SK-BR-3 cell line. The description is as above. Type of assay: cell-based. Particulars: Homo sapiens, Breast, read-out: IC50, SKBR3.
Text: as §2, §3

For assay [28], the system named is BT-474 cell line. The description is as above. The following applies: Homo sapiens, Breast, read-out: IC50, BT474. Format: cell-based.
Text: as §2, §3

Assay [29] concerns NB-4 cell line. The assay is described as above. Particulars: Homo sapiens, Acute promyelocytic leukemia. Format: cell-based.
Text: as §2, §3

The subject of assay [30] is EOL-1 cell line. Described as above. Type of assay: cell-based, human. Particulars: Homo sapiens, EOL1; Acute myeloid leukemia; read-out: IC50, EOL-1.
Text: as §2, §3

The test system of assay [31] is Ramos (non-Hodgkins lymphoma) cell line. The assay can be described thus: In vitro antiproliferation assay, General Procedure 1 (WST-8). Format: cell-based. The following applies: Ramos cells; rituximab neoDegrader conjugates versus comparators; FIG. 13. Here is the method: as §1
Assay [32] concerns BT-474 breast cancer cell line. The description is as above. Type of assay: cell-based. The following applies: Homo sapiens, BT-474, read-out: IC50, BT-474, conjugates DAR 8, comparators DAR not given. The method, then:
as §1

In assay [33] the test system is HL-60 (acute myeloid leukemia) cell line. The assay is described as above. Format: cell-based. Particulars: AML; conjugates DAR 8, Mylotarg DAR not given. Here is the method:
as §1

As to Pertuzumab [reference compound], the “anti-proliferative activity compared, in words” value in assay [1] and in assay [2] was “significantly less active” in each case.

For `CNc1ccccc1NC(=O)NCc1ccc2c(c1)CN(C1CCC(=O)NC1=O)C2=O` (stereo not drawn) [Compound P4, 3-[[2-(2,6-dioxopiperidin-3-yl)-1-oxo-3H-isoindol-5-yl]methyl]-1-[2-(methylamino)phenyl]urea], the half-inhibitory concentration (IC50) in assay [3] came to 85 nM; in assay [4], 5.45 nM; in assay [5], 119 nM; in [6], 6.27 nM; in assay [7] it was 46 nM; in assay [8], 2.28 nM. For the same molecule, the 50% inhibitory concentration (IC50) is 119 nM in assay [9]; 13 nM in [10]; 58.6 nM in assay [11]; 1.27 nM in assay [12]; 1000 nM in assay [13]; > 1000 nM in assay [14]. Besides, the concentration for half-maximal inhibition (IC50) was found to be 14.3 nM in assay [15]; 9.5 nM in assay [16]; 30.2 nM in assay [17]; 650 nM in assay [18]; 19.8 nM in assay [19]; 138 nM in assay [20]. The IC50 in assay [21] worked out at 1.91 nM; in assay [22], 124 nM; in assay [23], 20.9 nM; in [24], 16.9 nM; in [25], 3.77 nM; in assay [26] it was 7.42 nM. The half-maximal inhibitory concentration (IC50) in assay [27] came out at 64.6 nM; in [28] it was 2.9 nM; in [29], 2.63 nM; in [30], 1.88 nM; in assay [32] it was 2.9 nM. Also, in [31], the “antiproliferative activity compared, in words” value is “less active”. Besides, in [1], the “anti-proliferative activity compared, in words” value was “significantly less active”.

Turning to `O=C1CCC(N2Cc3cc(CNC(=O)Nc4ccc(CCO)c(Cl)c4)ccc3C2=O)C(=O)N1` (stereo not drawn) [Compound P3, 1-(3-chloro-4-(2-hydroxyethyl)phenyl)-3-((2-(2,6-dioxopiperidin-3-yl)-1-oxoisoindolin-5-yl)methyl)urea], the IC50 is 65 nM in assay [3]; 3.02 nM in assay [4]; 750 nM in assay [5]; 59.9 nM in [6]; 35.8 nM in assay [7]; 2.09 nM in [8]. The IC50 in [9] came out at 650 nM; in [10], 8.86 nM; in [11], 37.4 nM; in [12], 0.587 nM; in assay [13] it was 12.3 nM; in assay [14], 29.1 nM. Further, the concentration for half-maximal inhibition (IC50) is 9.17 nM in assay [15]; 8.5 nM in assay [16]; 26 nM in [17]; 650 nM in assay [18]; 18.4 nM in assay [19]; 99.7 nM in assay [20]. For the same molecule, the 50% inhibitory concentration (IC50) in assay [21] came out at 0.783 nM; in [22], 104 nM; in assay [23], 21.1 nM; in assay [24] it was 7 nM; in [25], 1.89 nM; in assay [26], 6.63 nM. Also, the IC50 in assay [27] is 35 nM; in assay [28] it was 6.37 nM; in [29] it was 2.2 nM; in assay [30] it was 0.733 nM.

B1: Lintuzumab IgG1-Compound (Ia) (conjugate, chains of the INN, looked up)
VH: QVQLVQSGAEVKKPGSSVKVSCKASGYTFTDYNMHWVRQAPGQGLEWIGYIYPYNGGTGYNQKFKSKATITADESTNTAYMELSSLRSEDTAVYYCARGRPAMDYWGQGTLVTVSS
VL: DIQMTQSPSSLSASVGDRVTITCRASESVDNYGISFMNWFQQKPGKAPKLLIYAASNQGSGVPSRFSGSGSGTDFTLTISSLQPDDFATYYCQQSKEVPWTFGQGTKVEIK
modifications: IgG1 conjugated to Compound (Ia)
Turning to B1, half-maximal inhibition in assay [33] (IC50) was put at 0.012 nM.

B2: Lintuzumab IgG1-Compound (Id) (conjugate, chains of the INN, looked up)
VH: B1 VH
VL: B1 VL
modifications: IgG1 conjugated to Compound (Id)
With B2, in [33], the 50% inhibitory concentration (IC50) was > 0.05 nM.

(Values after patent US20230338564A1, “NEODEGRADER CONJUGATES” (Orum Therapeutics, Inc., priority 2020, published 2023).)
